Experimental data reported in PMC10974272, “Cytotoxic and Antiproliferative Activity of LASSBio-2208 and the Attempts to Determine Its Drug Metabolism and Pharmacokinetics In Vitro Profile” (Pharmaceuticals, 2024).
Read-outs that look alike come from different tables or passages of the source.

How the values were obtained:
[1] = test system: human leukaemia cell line (CCRF-CEM); experiment: MTT cell viability assay, CCRF-CEM
Method: (§8) After the incubation time, the plate was centrifuged (Universal centrifuge 320R Hettich, Kirchlengern, Germany) at 440× g, 10 min and 4 °C, then 110 µL of supernatant was removed and 10 µL of MTT solution was added and left to incubate for 3.5 h in the oven at 37 °C and 5% CO2. […] The CC50 was calculated using the GraphPad Prism 9.0 program. Each sample was tested in triplicate in three independent experiments (N3) [32, 33].

[2] = test system: human prostate cancer cell line (PC-3); set-up: method as in PMID 37259357; settings: cited from earlier work
[3] = Non-specific microsome protein binding; type: in vitro ADME; settings: rat, pH 7.4; liver microsomes 0.5 mg protein/mL, 37 °C, 60 min; read-out: Percentage of ƒu(mic) (unbound fraction in nonspecific microsomal binding)
Method: Once such bonds are formed, the bound fraction would become incapable of being metabolized.
Liver microsomes were diluted with PBS pH 7.4 to a concentration of 0.5 mg protein/mL and 3 µL at 1 mM of the working test compound and solutions were mixed with 357 µL of liver microsome suspension. After mixing, duplicate 200 µL aliquots were immediately removed, while another microtubule acted as the control sample (T 0 h), and were quenched with 400 µL of cold acetonitrile containing analytical internal standards. The other samples were incubated at 37 °C at 100 rpm, for 60 min with the same subsequent treatment.

PAMPA—GIT = type: in vitro ADME; settings: for Papp: PAMPA, read-out: Pe. Exp. GIT; for Classification GIT: by fraction absorbed
Method: (§1) To obtain information on the permeability potential of LASSBio-2208 on cell membranes, this derivative was tested using the parallel artificial membrane permeability assay (PAMPA) that is used as an in vitro model of passive diffusion and transcellular permeation. In this model, the permeability across two artificial membranes is measured: brain lipid from pig extract in dodecane (called PAMPA—BBB) and L-α soy phosphatidylcholine in dodecane (called PAMPA—TGI).
(§2) To perform the permeability assay we used a donor plate where the compounds (tests or controls) are diluted in a buffered medium, characterized by the presence of a synthetic membrane of polyvinylidene fluoride (PVDF) impregnated with a lipid solution, forming a barrier through which the compounds migrate through a diffusion process to the lower plate called the receptor.
(§3) The lipid mixture that impregnates the filter has a different constitution for the permeability tests for the blood–brain barrier (brain lipid from pig extract in dodecane) and gastrointestinal tract (L-α soy phosphatidylcholine in dodecane). In the PAMPA—BBB and PAMPA—GIT assays, the optical density values obtained in the reading at each selected wavelength, for each of the compounds were analysed in comparison with the values of several controls. In the case of the BBB, these values were used to elaborate an equation and determine the permeability coefficient (Pe), using a previously elaborated spreadsheet, and, for the PAMPA—GIT, these values were used to determine the absorbed fraction (Fa%), both using the Excel program. The permeability result for PAMPA—GIT classifies the compounds according to the percentage of absorbed fraction (Fa%), as follows: high intestinal permeability (70–100%), medium permeability (30–69%) or low permeability (0–29%), and the samples were diluted from a stock solution of 10 mM. The PAMPA—BBB model classifies the compounds only as follows: permeable (CNS+) or non-permeable (CNS−) and the assays were made from a stock solution of 1 mg for each compound [25, 40, 41, 42].

[4] = test system: human prostate cancer cell line (PC-3); experiment: MTT cell viability assay, PC-3; set-up: Emax: dose or concentration left out as unconfirmed
Method: as §8

MCF-7 = experiment: SRB cell viability/antiproliferative assay, MCF-7; settings: Homo sapiens, MCF7, 48 h
[5] = test system: T lymphoblast cell line (MOLT-4); experiment: MTT cell viability assay, MOLT-4; settings: Homo sapiens
Method: as §8

PAMPA—BBB = type: in vitro ADME; set-up: key to Classification BBB: permeable (CNS+); non-permeable (CNS−)
Method: as §1, §2, §3

[6] = test system: human leukaemia cell line (CCRF-CEM); set-up: method as in PMID 37259357; settings: cited from earlier work
[7] = test system: T lymphoblast cell line (MOLT-4); set-up: method as in PMID 37259357; settings: cited from earlier work
[8] = test system: breast cancer cell line (MCF-7); experiment: MTT cell viability assay, MCF-7
Method: as §8

MOLT-4 = experiment: SRB cell viability/antiproliferative assay, MOLT-4; settings: Homo sapiens, MOLT-4, 48 h
PC-3 = experiment: SRB cell viability/antiproliferative assay, PC-3; settings: for Emax: SRB 48 h, PC-3, maximum effect at maximum concentration used
[9] = test system: breast cancer cell line (MCF-7); set-up: method as in PMID 37259357; settings: cited from earlier work
CCRF-CEM = experiment: SRB cell viability/antiproliferative assay, CCRF-CEM; settings: Homo sapiens, 48 h
[10] = test system: human peripheral blood mononuclear cells (hPBMC); experiment: PBMC viability assay by MTT; type: cell-based; settings: MTT 48 h, human PBMC; maximum cytotoxic response at 100 µM
Method: (§4) The SI indicates how selective a compound is for a tumour cell line compared with a non-tumour cell line.
(§5) Human peripheral blood mononuclear cells (PBMCs) were used to determine the selectivity index (SI) and were obtained from healthy volunteers under a protocol approved by the Ethics Committee CAAE: 38257914.7.0000.5259. Immortalized cells were also obtained from the Rio de Janeiro Cell Bank (BCRJ).
(§6) First, 8 mL of blood from each healthy donor (3 people) was collected in a tube with EDTA in a 1:20 ratio to prevent the blood from clotting. In a 15 mL Falcon tube containing 4 mL of Ficoll-Paque, the 8 mL of blood collected was slowly added, letting it fall down the walls of the tube. It was centrifuged (Universal Centrifuge 320R Hettich) for 40 min at 750× g at 21 °C with acceleration 1 and brake 0. After centrifugation, in order to extract the ring of mononuclear cells, the supernatant above it was first carefully discarded so as not to disturb the ring. The ring was then slowly removed and placed in another 15 mL Falcon tube to which pure RPMI-1640 medium was added in a 1:1 ratio and centrifuged for 10 min at 580× g and 21 °C with acceleration 8 and brake 9 [34, 35].
(§7) The supernatant was discarded, and the pellet was resuspended in 1 mL of RPMI-1640 medium supplemented with 10% SBF and 1% antibiotic. An amount of 20 µL of cells were taken from the mixture and added to 380 µL of trypan blue dye for counting in the Neubauer chamber. Considering that 80% of PBMCs are lymphocytes and the rest are monocytes, the cells were plated with the aim of having 10^5 cell/well.

[11] = PBMC viability assay by MTT; type: cell-based, human; settings: MTT 48 h, non-tumour human PBMC
Method: as §4, §5, §6, §7

`CN(C)C1CCN(C(=O)c2ccc(NC(=O)Nc3ccc(-c4nc(N5CCOCC5)nc(N5CCOCC5)n4)cc3)cc2)CC1` [Gedatolisib, gedatolisib] gave a CC50 ([1]; 24 h) of 0.31 µM, an Emax ([1]; 24 h) of 98.6% and a CC50 ([1]; 48 h) of 0.085 µM. For the same compound, the Emax ([1]; 48 h) was 99.5%, the CC50 ([1]; 72 h) was 0.09 µM and the Emax ([1]; 72 h) was 100%. The CC50 [2] was 0.54 µM, the fraction unbound at 60 min, 8.3 µM [3] was 0.503 and the “Fraction Absorbed” value (PAMPA—GIT) was 48.4%. It also gave a Papp (PAMPA—GIT) of 1.74 ×10⁻⁶ cm/s, a CC50 ([4]; Homo sapiens, 24 h) greater than 100 µM and an Emax ([4]; Homo sapiens, 24 h) of 48%. The CC50 ([4]; Homo sapiens, 48 h) was 5.05 µM, the Emax ([4]; Homo sapiens, 48 h) was 60.5% and the CC50 ([4]; Homo sapiens, 72 h) was 0.86 µM. It also gave an Emax ([4]; Homo sapiens, 72 h) of 81.1%, a CC50 (MCF-7) of 0.03 µM and an Emax (MCF-7) of 95.7%. It also gave a CC50 ([5]; MOLT-4, 24 h) of 0.35 µM, an Emax ([5]; MOLT-4, 24 h) of 97.2% and a CC50 ([5]; MOLT-4, 48 h) of 0.08 µM. The Emax ([5]; MOLT-4, 48 h) was 99.3%, the CC50 ([5]; MOLT-4, 72 h) was 0.07 µM and the “Classification BBB” value (PAMPA—BBB) was “Insoluble”. The “Pe. Exp. BBB” value (PAMPA—BBB) was “Insoluble”, the “Pe. Exp. BBB” value (PAMPA—BBB; listed as gedatolisib) was “insoluble” and the CC50 [6] was 0.03 µM. For the same compound, the CC50 [7] was 0.02 µM, the CC50 ([8]; Homo sapiens, MCF7, 24 h) was 5.04 µM and the Emax ([8]; Homo sapiens, MCF7, 24 h) was 79.9%. It also gave a CC50 ([8]; Homo sapiens, MCF7, 48 h) of 0.21 µM, an Emax ([8]; Homo sapiens, MCF7, 48 h) of 96.8% and a CC50 ([8]; Homo sapiens, MCF7, 72 h) of 0.06 µM. The CC50 (MOLT-4) was 3.68 µM, the Emax (MOLT-4) was 69.2% and the CC50 (PC-3; Homo sapiens, PC-3, 48 h) was 6.16 µM. For the same compound, the Emax (PC-3; Homo sapiens, PC-3, 48 h) was greater than 50%, the CC50 [9] was 0.07 µM and the CC50 (CCRF-CEM) was 0.78 µM. The Emax (CCRF-CEM) was 66.2%.
With `CN1CCc2c(c3ccccc3n2Cc2ccc(C(=O)NO)cc2)C1` [Tubastatin A, tubastatin A] the CC50 ([1]; 24 h) was 12.5 µM, the Emax ([1]; 24 h) was 95.8% and the CC50 ([1]; 48 h) was 9.38 µM. It also gave an Emax ([1]; 48 h) of 99.1%, a CC50 ([1]; 72 h) of 7.11 µM and an Emax ([1]; 72 h) of 99.3%. The fraction unbound at 60 min, 8.3 µM [3] was 0.131, the “Fraction Absorbed” value (PAMPA—GIT) was 52.93% and the Papp (PAMPA—GIT) was 1.98 ×10⁻⁶ cm/s. The “Classification GIT” value (PAMPA—GIT) was “Medium (medium permeability (30–69%))”, the “Classification GIT” value (PAMPA—GIT; listed as tubastatin A) was “medium” and the “Fraction Absorbed” value (PAMPA—GIT; listed as tubastatin A) was 52.9%. The Emax [10] was 58.2%, the CC50 at 48 h [11] was 85.7 µM and the CC50 ([4]; Homo sapiens, 24 h) was greater than 100 µM. The Emax ([4]; Homo sapiens, 24 h) was 41.8%, the CC50 ([4]; Homo sapiens, 48 h) was 65.9 µM and the Emax ([4]; Homo sapiens, 48 h) was 67.8%. For the same compound, the CC50 ([4]; Homo sapiens, 72 h) was 34.9 µM, the Emax ([4]; Homo sapiens, 72 h) was 83.6% and the CC50 ([4]; MTT 24 h, PC-3) was “did not show any cytotoxic activity”. For the same compound, the CC50 (MCF-7) was 66 µM, the Emax (MCF-7; SRB 48 h, MCF-7, maximum effect at maximum concentration used) was greater than 70% and the Emax ([5]; MOLT-4, 24 h) was 94.6%. The CC50 ([5]; MOLT-4, 48 h) was 7.5 µM, the Emax ([5]; MOLT-4, 48 h) was 98.2% and the Emax ([5]; MOLT-4, 72 h) was 98.7%. For the same compound, the “Classification BBB” value (PAMPA—BBB) was “CNS+”, the Papp (PAMPA—BBB; read-out: Pe. Exp. BBB) was 5.54 ×10⁻⁶ cm/s and the CC50 ([8]; Homo sapiens, MCF7, 24 h) was greater than 100 µM. It also gave an Emax ([8]; Homo sapiens, MCF7, 24 h) of 40.1%, a CC50 ([8]; Homo sapiens, MCF7, 48 h) greater than 100 µM and an Emax ([8]; Homo sapiens, MCF7, 48 h) of 48.2%. The CC50 ([8]; Homo sapiens, MCF7, 72 h) was 83.6 µM, the Emax ([8]; Homo sapiens, MCF7, 72 h) was 56.8% and the CC50 ([8]; MTT 24 h, MCF-7) was “did not show any cytotoxic activity”. It also gave a CC50 (MOLT-4) of 10.5 µM, an Emax (MOLT-4) of 54.4% and a CC50 (PC-3; Homo sapiens, PC-3, 48 h) greater than 100 µM. For the same compound, the Emax (PC-3; Homo sapiens, PC-3, 48 h) was less than 35%, the Emax (PC-3) was 39.3% and the CC50 (CCRF-CEM) was 9.69 µM. It also gave an Emax (CCRF-CEM) of 69.5%.
